Measured values taken from patent publication US4596824A, “p-Aminophenol with mucosecretolytic-fluidizing and antipyretic activity, a process for its preparation and pharmaceutical compositions thereof” (Camillo Corvi S.p.A., priority 1984, dated 1986).

Experiments:
[1] = in vivo; settings: mouse, po
Source text: Method of studying LD50 in the mouse after a single oral administration.
Thereafter, the animals are fed again (Morini MIL fodder for mice).

[2] = tested on: bronchial secretion (mucoproduction); assay: Bronchosecretagogue activity (mucoproduction) in the rabbit; type: in vivo, rabbit (male brown); settings: oral, relative activity, d,l-trans-sobrerol taken equal to 100
Procedure: Method of mucoproduction in the rabbit according to Scuri R. et al Boll. Chem. Farm.
Male brown rabbits weighing 2.8-3.5 kg are used. To said animals, by a surgical operation under anaesthesia, a T shaped tracheal cannula is applied, as described in the above bibliographic reference.
To the cannula, a container (a polypropylene 2 ml test tube) is applied for periodical collection of the bronchial secretion. The study of mucoproduction, started at the fourth day after the operation, is divided into two 4 hour periods for collecting and measuring the mucus, and precisely from 8:30 to 12:30 (I), and from 12:30 to 16:30 (II).
The activity of each drug is tested by administering the same by oesophageal way (os) at the beginning of the II period and by evaluating the percent increase of mucoproduction (weight of the mucus as collected) in the II period as compared with the I period.

[3] = tested on: bronchial mucus of bronchitic rabbits; assay: Fluidizing "in vivo" activity: viscosity of bronchial mucus of bronchitic rabbits; design: species or system rabbit (male, bronchitic by sulphuric acid aerosol); settings: for Fluidizing "in vivo" activity of bronchial mucus: bronchitic rabbits, oral, relative activity, d,l-trans-sobrerol taken equal to 100
Procedure: The viscosity of the mucus as withdrawn is studied by using a Contraves RM16 microviscosimeter and it is recorded by a Rheomat 15 T-FC apparatus.

[4] = tested on: rectal temperature, dry yeast-induced fever; assay: Antipyretic activity in the rat (dry yeast fever); type: in vivo, rat (albino Wistar female); settings: for Antipyretic activity: rat, oral, temperature index over 4-25 h, relative activity, p-aminophenol taken equal to 100
Procedure: Method for studying the antipyretic activity in the rat.
Albino Wistar female rats, weighing 100-140g, are utilized. The animals having a rectal, basal temperature from 36° to 37° C. are selected.
The test substances are administered by oral way contemporaneously with the pyretic agent (dry yeast, suspended in water at the 20% concentration; volume administered 15 ml/kg subcutaneously) at groups of 5 animals per dose.
After 4,5,6,7 and 25 hours from the treatment, the rectal temperature of the animals is measured by an Ellab RM6 probe, connected to an Ellab mod. TE-3 thermometer.
The activity of the drugs is evaluated by utilizing a temperature index which is provided by the algebraic sum of the differences in the rectal temperature between the measure values at the various times and the basal value.

[5] = Pharmacokinetics: plasma levels in the rat after oral administration (HPLC); type: in vivo; settings: Wistar rats, fasted, 400 mg/kg oral single administration, 0.5-6 h
Procedure: For this study, two groups of Wistar rats (170 280 g), fasting about 15 hours before treatment, are utilized. The animals were allowed to drink an aqueous 10% glucose solution. To the rats, the compound of formula I, by oral way (transoesophageal intubation) is administered at the dose of 400 mg/kg (a single administration) and at 0.5 h; 1 h; 1.5 h; 2 h; 3 h; 4 h; 6 h from administration, 5 rats/time are sacrificed. The blood, as collected into test tubes containing sodium heparin, is centrifuged and the plasma so obtained is utilized for quantitative analysis of the compound of formula (I) of the invention by means of high pressure liquid chromatography (HPLC) with an U.V. detector.

SMILES	LD50 at 336 h [1] [mg/kg]	Bronchosecretagogue activity [2]	Fluidizing "in vivo" activity of bronchial mucus [3]	Antipyretic activity [4]	mucosecretolytic-fluidizing activity ([3]; statement in words, versus activity ascribed to the d,l-trans-sobrerol moiety)	antipyretic activity compared with paracetamol or any drug of the same therapeutical class ([4]; statement in words)	absorption (course of the plasmatic levels) [5]
CC1=CC[C@H](C(C)(C)O)C[C@H]1O (relative stereo) [d,l-trans-sobrerol]	2340	100	100	0			
Nc1ccc(O)cc1 [p-aminophenol]		0	0	100			
CC1=CC[C@H](C(C)(C)O)C[C@H]1OC(=O)CCC(=O)Nc1ccc(O)cc1 (relative stereo) [CO/1499, 5-[3-N-[(4-hydroxyphenyl)carboxamido]-1-oxo-propxy]-α,α-4-trimethyl-3-cyclohexene-1-methanol]	2070	131	120	127	potency increase	equivalent of a dose of either paracetamol or any drug of the same therapeutical class	quick and good absorption
